Data taken from the supplement of paper PMC4862054.

Legend:
Conditions in all cases: incubation time: 72 h
[1] = system: MFM-223; assay: normalised response (% of control), CellTox Green; higher = less cell death (100 = DMSO, 0 = benzethonium chloride kill control)
Outline: (§1)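 Plates were normalised with 0.1 % DMSO as 100 and a positive kill control as 0. Breast cancer cell lines in 20 µl suspension had been seeded into 384-well plates with compound at 5 concentrations in 10-fold steps over a compound-specific 10,000-fold range, incubated 72 h, and read for CellTox Green fluorescence (485/520 nm) followed by CellTiter-Glo luminescence. Each value is the normalised signal at a single concentration.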

[2] = system: BT-549; assay: as above
Outline: as §1

[3] = system: MDA-MB-468; assay: as above
Outline: as §1

[4] = system: DU-4475; assay: as above
Outline: as §1

[5] = system: HCC1143; assay: as above
Outline: as §1

[6] = system: CAL-148; assay: as above
Outline: as §1

[7] = system: CAL-85-1; assay: as above
Outline: as §1

[8] = system: HCC1599; assay: as above
Outline: as §1

[9] = system: HDQ-P1; assay: as above
Outline: as §1

[10] = system: MDA-MB-436; assay: as above
Outline: as §1

[11] = system: BT-474; assay: as above
Outline: as §1

[12] = system: MDA-MB-231; assay: as above
Outline: as §1

[13] = system: CAL-51; assay: as above
Outline: as §1

[14] = system: MDA-MB-453; assay: as above
Outline: as §1

[15] = system: HCC1937; assay: as above
Outline: as §1

[16] = system: Hs578T; assay: as above
Outline: as §1

[17] = system: CAL-120; assay: as above
Outline: as §1

[18] = system: MCF-10A; assay: as above
Outline: as §1

[19] = system: MFM-223; assay: normalised response (% of control), CellTiter-Glo; higher = more viable cells (100 = DMSO, 0 = benzethonium chloride kill control)
Outline: as §1

[20] = system: BT-549; assay: as above
Outline: as §1

[21] = system: MDA-MB-468; assay: as above
Outline: as §1

[22] = system: DU-4475; assay: as above
Outline: as §1

[23] = system: HCC1143; assay: as above
Outline: as §1

[24] = system: CAL-148; assay: as above
Outline: as §1

[25] = system: CAL-85-1; assay: as above
Outline: as §1

[26] = system: HCC1599; assay: as above
Outline: as §1

[27] = system: HDQ-P1; assay: as above
Outline: as §1

[28] = system: MDA-MB-436; assay: as above
Outline: as §1

[29] = system: BT-474; assay: as above
Outline: as §1

[30] = system: MDA-MB-231; assay: as above
Outline: as §1

[31] = system: CAL-51; assay: as above
Outline: as §1

[32] = system: MDA-MB-453; assay: as above
Outline: as §1

[33] = system: SK-BR-3; assay: as above
Outline: as §1

[34] = system: HCC1937; assay: as above
Outline: as §1

[35] = system: Hs578T; assay: as above
Outline: as §1

[36] = system: CAL-120; assay: as above
Outline: as §1

[37] = system: MCF-10A; assay: as above
Outline: as §1

S=c1[nH]cnc2nc[nH]c12 [Mercaptopurine] (100 nM)
normalised response [1]: 82.7% | normalised response [2]: 94.6% | normalised response [3]: 134% | normalised response [4]: 98.8% | normalised response [5]: 91.9% | normalised response [6]: 95.9% | normalised response [7]: 108% | normalised response [8]: 98% | normalised response [9]: 66.2% | normalised response [10]: 102% | normalised response [11]: 91.2% | normalised response [12]: 80.6% | normalised response [13]: 94.5% | normalised response [14]: 103% | normalised response [15]: 101% | normalised response [16]: 92.4% | normalised response [17]: 98.4% | normalised response [18]: 99.5% | normalised response [19]: 98.5% | normalised response [20]: 104% | normalised response [21]: 88.4% | normalised response [22]: 96.8% | normalised response [23]: 104% | normalised response [24]: 81.7% | normalised response [25]: 90.8% | normalised response [26]: 91.3% | normalised response [27]: 105% | normalised response [28]: 96.1% | normalised response [29]: 95.1% | normalised response [30]: 101% | normalised response [31]: 96.9% | normalised response [32]: 95.5% | normalised response [33]: 98.3% | normalised response [34]: 94% | normalised response [35]: 96.6% | normalised response [36]: 92.5% | normalised response [37]: 94.6%

CC[C@]1(O)C[C@@H]2CN(CCc3c([nH]c4ccccc34)[C@@](C(=O)OC)(c3cc4c(cc3OC)N(C)[C@H]3[C@@](O)(C(=O)OC)[C@H](OC(C)=O)[C@]5(CC)C=CCN6CC[C@]43[C@@H]65)C2)C1 [Vinblastine] (10 nM)
normalised response [1]: 69.6% | normalised response [2]: 65.2% | normalised response [3]: 110% | normalised response [4]: 102% | normalised response [5]: 92% | normalised response [6]: 82.7% | normalised response [7]: 31.4% | normalised response [8]: 84.7% | normalised response [9]: 40.4% | normalised response [10]: 44.7% | normalised response [11]: 72.6% | normalised response [12]: -19.5% | normalised response [13]: 30.4% | normalised response [14]: 98% | normalised response [15]: 92.3% | normalised response [16]: 71.2% | normalised response [17]: 73.6% | normalised response [18]: 16.4% | normalised response [19]: 77.1% | normalised response [20]: 39.1% | normalised response [21]: 33.9% | normalised response [22]: 96.1% | normalised response [23]: 48.6% | normalised response [24]: 70.8% | normalised response [25]: 29.4% | normalised response [26]: 70.4% | normalised response [27]: 76.1% | normalised response [28]: 36% | normalised response [29]: 58.2% | normalised response [30]: 57.8% | normalised response [31]: 58.1% | normalised response [32]: 57.4% | normalised response [33]: 12.3% | normalised response [34]: 71% | normalised response [35]: 55.4% | normalised response [36]: 51.5% | normalised response [37]: 51.6%

CO[C@H]1C[C@@H]2CC[C@@H](C)[C@@](O)(O2)C(=O)C(=O)N2CCCC[C@H]2C(=O)O[C@H]([C@H](C)C[C@@H]2CC[C@@H](OC(=O)C(C)(CO)CO)[C@H](OC)C2)CC(=O)[C@H](C)/C=C(\C)[C@@H](O)[C@@H](OC)C(=O)[C@H](C)C[C@H](C)/C=C/C=C/C=C/1C [Temsirolimus] (1 nM)
normalised response [1]: 90.2% | normalised response [2]: 109% | normalised response [3]: 135% | normalised response [4]: 97.5% | normalised response [5]: 117% | normalised response [6]: 96.7% | normalised response [7]: 97.9% | normalised response [8]: 109% | normalised response [9]: 113% | normalised response [10]: 99.8% | normalised response [11]: 89.6% | normalised response [12]: 94.2% | normalised response [13]: 94.9% | normalised response [14]: 100% | normalised response [15]: 118% | normalised response [16]: 66.9% | normalised response [17]: 102% | normalised response [18]: 99.6% | normalised response [19]: 79.6% | normalised response [20]: 68.4% | normalised response [21]: 56.3% | normalised response [22]: 92.3% | normalised response [23]: 77.4% | normalised response [24]: 82.5% | normalised response [25]: 74.8% | normalised response [26]: 111% | normalised response [27]: 94.4% | normalised response [28]: 87.2% | normalised response [29]: 90.8% | normalised response [30]: 98.8% | normalised response [31]: 68.3% | normalised response [32]: 88.4% | normalised response [33]: 68.7% | normalised response [34]: 77.8% | normalised response [35]: 69.9% | normalised response [36]: 83.4% | normalised response [37]: 102%

Clc1ccc(C(c2ccccc2Cl)C(Cl)Cl)cc1 (configuration not stated) [Mitotane] (100 nM)
normalised response [1]: 77.9% | normalised response [2]: 94.6% | normalised response [3]: 120% | normalised response [4]: 97.9% | normalised response [5]: 92.2% | normalised response [6]: 101% | normalised response [7]: 105% | normalised response [8]: 100% | normalised response [9]: 95.8% | normalised response [10]: 88.1% | normalised response [11]: 100% | normalised response [12]: 95.5% | normalised response [13]: 101% | normalised response [14]: 106% | normalised response [15]: 95% | normalised response [16]: 91.4% | normalised response [17]: 92% | normalised response [18]: 78.6% | normalised response [19]: 95.6% | normalised response [20]: 99.6% | normalised response [21]: 92.9% | normalised response [22]: 97.2% | normalised response [23]: 100% | normalised response [24]: 96.2% | normalised response [25]: 101% | normalised response [26]: 93.7% | normalised response [27]: 102% | normalised response [28]: 97.8% | normalised response [29]: 94% | normalised response [30]: 98.7% | normalised response [31]: 94.8% | normalised response [32]: 95.5% | normalised response [33]: 97.7% | normalised response [34]: 95.4% | normalised response [35]: 95.3% | normalised response [36]: 97.8% | normalised response [37]: 92.2%

Cc1ccc(F)c(NC(=O)Nc2ccc(-c3cccc4[nH]nc(N)c34)cc2)c1 [Linifanib] (10 nM)
normalised response [1]: 108% | normalised response [2]: 96.7% | normalised response [3]: 121% | normalised response [4]: 102% | normalised response [5]: 108% | normalised response [6]: 108% | normalised response [7]: 97.2% | normalised response [8]: 111% | normalised response [9]: 112% | normalised response [10]: 72.8% | normalised response [11]: 99.7% | normalised response [12]: 91.7% | normalised response [13]: 109% | normalised response [14]: 108% | normalised response [15]: 104% | normalised response [16]: 87% | normalised response [17]: 99.2% | normalised response [18]: 56.1% | normalised response [19]: 106% | normalised response [20]: 96.7% | normalised response [21]: 106% | normalised response [22]: 105% | normalised response [23]: 107% | normalised response [24]: 112% | normalised response [25]: 92.7% | normalised response [26]: 108% | normalised response [27]: 97.3% | normalised response [28]: 108% | normalised response [29]: 107% | normalised response [30]: 111% | normalised response [31]: 102% | normalised response [32]: 97.2% | normalised response [33]: 103% | normalised response [34]: 99.5% | normalised response [35]: 105% | normalised response [36]: 102% | normalised response [37]: 110%

C=CC[C@@H]1/C=C(\C)C[C@H](C)C[C@H](OC)[C@H]2O[C@@](O)(C(=O)C(=O)N3CCCC[C@H]3C(=O)O[C@H](/C(C)=C/[C@@H]3CC[C@@H](O)[C@H](OC)C3)[C@H](C)[C@@H](O)CC1=O)[C@H](C)C[C@@H]2OC [Tacrolimus] (100 nM)
normalised response [1]: 101% | normalised response [2]: 104% | normalised response [3]: 186% | normalised response [4]: 100% | normalised response [5]: 99.5% | normalised response [6]: 82% | normalised response [7]: 93.4% | normalised response [8]: 95.4% | normalised response [9]: 69.4% | normalised response [10]: 103% | normalised response [11]: 100% | normalised response [12]: 104% | normalised response [13]: 91% | normalised response [14]: 97.8% | normalised response [15]: 107% | normalised response [16]: 95.7% | normalised response [17]: 100% | normalised response [18]: 57.2% | normalised response [19]: 106% | normalised response [20]: 98.2% | normalised response [21]: 93% | normalised response [22]: 101% | normalised response [23]: 101% | normalised response [24]: 111% | normalised response [25]: 94.6% | normalised response [26]: 95.9% | normalised response [27]: 97.7% | normalised response [28]: 96.4% | normalised response [29]: 100% | normalised response [30]: 110% | normalised response [31]: 77.2% | normalised response [32]: 103% | normalised response [33]: 89.7% | normalised response [34]: 98% | normalised response [35]: 96.5% | normalised response [36]: 98.8% | normalised response [37]: 102%
